The values below come from patent US12162881B2, “Forms and compositions of inhibitors of JAK2” (Ajax Therapeutics, Inc., priority 2021, dated 2024).

Converted amounts (≈) assume the structure as drawn. “And” between values parts separate entries of the source, which are not always exact repeats. Equal entries are not always repeated. A value given as a limit tells only on which side of the number the result lay.

Holding throughout (format): physicochemical
Series [1] can be described thus: Approximate Aqueous Solubility of Selected Solid Forms. As to conditions: ambient temperature; for solubility: water, thermodynamic from solid. How it is done:
Aliquots of various solvents were added to measured amounts of provided compounds with agitation at ambient temperature until complete dissolution was achieved, as judged by visual observation. If dissolution occurred after the addition of the first aliquot, values were reported as “>”. Results are shown in Table 18, where A is <2 mg/mL; B is <1 mg/mL.

A short description of series [2]: Physical Stability of Selected Solid Forms (vacuum oven, XRPD). As to conditions: vac. oven.
Series [3] can be described thus: Dynamic vapor sorption (DVS) hygroscopicity. The settings on record: for Hysteresis: in % (unit assumed); for DVS weight loss upon desorption / DVS weight loss upon desorption as water: desorption from 95% to 5% RH; for post-DVS XRPD: solid recovered after DVS cycle; for DVS hysteresis observation: sorption/desorption 5-95% RH. How it is done: Automated vapor sorption (VS) data were collected on a Surface Measurement System DVS Intrinsic instrument. Samples were not dried prior to analysis. Sorption and desorption data were collected over a range from 5% to 95% RH at 10% RH increments under a nitrogen purge. The equilibrium criterion used for analysis was less than 0.0100% weight change in 5 minutes with a maximum equilibration time of 3 hours. Data were not corrected for the initial moisture content of the samples.

Series [4] can be described thus: Solubility Study of Compound 1 Form 1 (solvent aliquot addition, visual observation). The settings on record: thermodynamic from solid, read-out: Solubility at ambient temperature. How it is done:
Aliquots of various solvents were added to measured amounts of Compound 1 Form 1 with agitation at ambient temperature until complete dissolution was achieved, as judged by visual observation. […] See Table 15 below, where A is 5-20 mg/mL; B is 1-4.9 mg/mL; and C is <1 mg/mL.

The mark [5] stands for this setting: visual observation, read-out: Estimated Aqueous Solubility.

The solubility is how much of the substance goes into solution per volume. For the molecule `CC(=O)Nc1cc(Oc2cnc3nc(Nc4cc(C(F)(F)F)cn(C)c4=O)n(C)c3c2C#N)ccn1.O=S(=O)(O)c1ccccc1` [Besylate Form A, N-(4-((7-cyano-1-methyl-2-((1-methyl-2-oxo-5-(trifluoromethyl)-1,2-dihydropyridin-3-yl)amino)-1H-imidazo[4,5-b]pyridin-6-yl)oxy)pyridin-2-yl)acetamide besylate], in series [1] (setting [5]), the solubility was below 1000 µg/mL. Also, in series [2] (RT, 5 d), the “XRPD Result (physical stability)” value is “Besylate Form C”.

Take `CC(=O)Nc1cc(Oc2cnc3nc(Nc4cc(C(F)(F)F)cn(C)c4=O)n(C)c3c2C#N)ccn1` [Compound 1 Form 1, N-(4-((7-cyano-1-methyl-2-((1-methyl-2-oxo-5-(trifluoromethyl)-1,2-dihydropyridin-3-yl)amino)-1H-imidazo[4,5-b]pyridin-6-yl)oxy)pyridin-2-yl)acetamide]: the “Desorp Mass Change (%)” value in series [3] (Target RH 5.0%) is given as −0.011%; in series [3] (Target RH 15.0%), 0.103%; in series [3] (Target RH 25.0%) it was 3.654%; in series [3] (Target RH 35.0%), 3.877%; in series [3] (Target RH 45.0%), 4.084%; in series [3] (Target RH 55.0%) it was 4.203%. Further, the “Desorp Mass Change (%)” value is on record as 4.403% in series [3] (Target RH 65.0%), 4.578% in series [3] (Target RH 75.0%), 4.677% in series [3] (Target RH 85.0%) and 4.804% in series [3] (Target RH 95.0%). Besides, the “Sorp Mass Change (%)” value in series [3] (Target RH 5.0%) worked out at 0.001%; in series [3] (Target RH 15.0%), 0.068%; in series [3] (Target RH 25.0%) it was 0.118%; in series [3] (Target RH 35.0%) it was 0.292%; in series [3] (Target RH 45.0%) it was 0.396%; in series [3] (Target RH 55.0%), 3.757%. Also, the “Sorp Mass Change (%)” value worked out at 4.049% in series [3] (Target RH 65.0%), 4.282% in series [3] (Target RH 75.0%), 4.534% in series [3] (Target RH 85.0%) and 4.804% in series [3] (Target RH 95.0%). For the same molecule, the Hysteresis in series [3] (Target RH 15.0%) amounted to 0.036; in series [3] (Target RH 25.0%), 3.536; in series [3] (Target RH 35.0%) it was 3.585; in series [3] (Target RH 45.0%) it was 3.687; in series [3] (Target RH 55.0%), 0.446; in series [3] (Target RH 65.0%), 0.354. Further, the results for the Hysteresis in series [3] (Target RH 75.0%) and in series [3] (Target RH 85.0%) were 0.296 and 0.142, respectively. The molecule also gave a DVS weight loss in series [3] (desorption from 25% to 15% RH) of 3.55%. Besides, in series [3] (desorption from 25% to 15% RH), the “DVS weight loss as water” value came out at 1.0 mol/mol H2O. Besides, the “DVS weight loss upon desorption” value in series [3] is 4.82%. Besides, in series [3], the “DVS weight loss upon desorption as water” value stood at 1.4 mol/mol H2O. Moreover, the “post-DVS XRPD” value in series [3] is “very similar”. In addition, the figures for the DVS weight gain in series [3] (sorption from 5% to 95% RH) and in series [3] (sorption from 45% to 55% RH) were 4.80% and 3.36%, respectively. The entries for the “DVS weight gain as water uptake” value in series [3] (sorption from 5% to 95% RH) and in series [3] (sorption from 45% to 55% RH) were 1.4 mol/mol H2O and 1.0 mol/mol H2O, respectively. In addition, the DVS hysteresis observation entry in series [3] was “hysteresis evident”. Besides, the solubility in series [4] (organic solvent or mixture, solvent ACN) was below 1000 µg/mL; in series [4] (organic solvent or mixture, solvent DCM) it was below 1000 µg/mL; in series [4] (organic solvent or mixture, solvent DMA), 5000 to 20000 µg/mL (≈ 10000 to 40100 µM); in series [4] (organic solvent or mixture, solvent MeOH), below 1000 µg/mL; in series [4] (organic solvent or mixture, solvent TFE), 5000 to 20000 µg/mL (≈ 10000 to 40100 µM); in series [4] (organic solvent or mixture, solvent THF), 1000 to 4900 µg/mL (≈ 2010 to 9830 µM). In addition, the solubility was below 1000 µg/mL in series [4] (organic solvent or mixture, solvent acetone) and below 1000 µg/mL in series [4] (water, solvent H2O).

With `CC(=O)Nc1cc(Oc2cnc3nc(Nc4cc(C(F)(F)F)cn(C)c4=O)n(C)c3c2C#N)ccn1.Cl` [Compound 2 Form A, N-(4-((7-cyano-1-methyl-2-((1-methyl-2-oxo-5-(trifluoromethyl)-1,2-dihydropyridin-3-yl)amino)-1H-imidazo[4,5-b]pyridin-6-yl)oxy)pyridin-2-yl)acetamide hydrochloride], the “Desorp Mass Change (%)” value in series [3] (Target RH 5.0%) is given as −0.0582%; in series [3] (Target RH 15.0%), 0.0326%; in series [3] (Target RH 25.0%), 0.0900%; in series [3] (Target RH 35.0%), 0.1559%; in series [3] (Target RH 45.0%), 0.2304%; in series [3] (Target RH 55.0%), 0.3159%. Moreover, the “Desorp Mass Change (%)” value is 0.4283% in series [3] (Target RH 65.0%), 0.5577% in series [3] (Target RH 75.0%), 0.6871% in series [3] (Target RH 85.0%) and 0.9477% in series [3] (Target RH 95.0%). Moreover, the “Sorp Mass Change (%)” value in series [3] (Target RH 5.0%) is recorded as 0.0009%; in series [3] (Target RH 15.0%), 0.0521%; in series [3] (Target RH 25.0%), 0.0998%; in series [3] (Target RH 35.0%) it was 0.1539%; in series [3] (Target RH 45.0%) it was 0.2007%; in series [3] (Target RH 55.0%), 0.2634%. In addition, the “Sorp Mass Change (%)” value is 0.3387% in series [3] (Target RH 65.0%), 0.5032% in series [3] (Target RH 75.0%), 0.6403% in series [3] (Target RH 85.0%) and 0.9477% in series [3] (Target RH 95.0%). Further, the Hysteresis is reported as −0.0195 in series [3] (Target RH 15.0%); −0.0098 in series [3] (Target RH 25.0%); 0.0020 in series [3] (Target RH 35.0%); 0.0297 in series [3] (Target RH 45.0%); 0.0525 in series [3] (Target RH 55.0%); 0.0896 in series [3] (Target RH 65.0%). The Hysteresis was found to be 0.0545 in series [3] (Target RH 75.0%) and 0.0468 in series [3] (Target RH 85.0%). The “DVS weight loss upon desorption as water” value in series [3] was 0.3 mol/mol H2O. Moreover, the “DVS weight loss upon desorption” value in series [3] (hydrochloride) was 1.01% and 1.0059%. Moreover, in series [3], the “post-DVS XRPD” value is given as “Compound 2 Form A”. Further, the “DVS weight gain as water uptake” value in series [3] (sorption from 5% to 95% RH) came to 0.3 mol/mol H2O. Also, the DVS weight gain in series [3] (sorption from 5% to 95% RH, hydrochloride) is 0.95% and 0.9468%. Further, the DVS hysteresis observation entry in series [3] is recorded as “No hysteresis was observed”. The solubility in series [1] (setting [5]) is below 2000 µg/mL; in series [1] (read-out: Aqueous solubility, visually approximated) it was below 2000 µg/mL.

Take `Br.CC(=O)Nc1cc(Oc2cnc3nc(Nc4cc(C(F)(F)F)cn(C)c4=O)n(C)c3c2C#N)ccn1` [Compound 3 Form A, N-(4-((7-cyano-1-methyl-2-((1-methyl-2-oxo-5-(trifluoromethyl)-1,2-dihydropyridin-3-yl)amino)-1H-imidazo[4,5-b]pyridin-6-yl)oxy)pyridin-2-yl)acetamide hydrobromide]: the “XRPD Result (physical stability)” value in series [2] (45° C., 2 d) is listed as “Compound 3 Form A +”.

On to `CC(=O)Nc1cc(Oc2cnc3nc(Nc4cc(C(F)(F)F)cn(C)c4=O)n(C)c3c2C#N)ccn1.CS(=O)(=O)O` [Compound 4 Form A, N-(4-((7-cyano-1-methyl-2-((1-methyl-2-oxo-5-(trifluoromethyl)-1,2-dihydropyridin-3-yl)amino)-1H-imidazo[4,5-h]pyridin-6-yl)oxy)pyridin-2-yl)acetamide mesylate], for which the “XRPD Result (physical stability)” value in series [2] (45° C., 2 d) is given as “Compound 4 Form B”.

Turning to `CC(=O)Nc1cc(Oc2cnc3nc(Nc4cc(C(F)(F)F)cn(C)c4=O)n(C)c3c2C#N)ccn1` [Compound 5 Form A, N-(4-((7-cyano-1-methyl-2-((1-methyl-2-oxo-5-(trifluoromethyl)-1,2-dihydropyridin-3-yl)amino)-1H-imidazo[4,5-b]pyridin-6-yl)oxy)pyridin-2-yl)acetamide camsylate], the “XRPD Result (physical stability)” value in series [2] (RT, 5 d) is reported as “Compound 5 Form C”.

For `CC(=O)Nc1cc(Oc2cnc3nc(Nc4cc(C(F)(F)F)cn(C)c4=O)n(C)c3c2C#N)ccn1.CCS(=O)(=O)O` [Esylate Form A, N-(4-((7-cyano-1-methyl-2-((1-methyl-2-oxo-5-(trifluoromethyl)-1,2-dihydropyridin-3-yl)amino)-1H-imidazo[4,5-b]pyridin-6-yl)oxy)pyridin-2-yl)acetamide esylate], the solubility in series [1] (setting [5]) was below 1000 µg/mL. For the same molecule, in series [2] (RT, 5 d), the “XRPD Result (physical stability)” value is listed as “Esylate Form A”.

As for `CC(=O)Nc1cc(Oc2cnc3nc(Nc4cc(C(F)(F)F)cn(C)c4=O)n(C)c3c2C#N)ccn1.O=P(O)(O)O` [Phosphate Form A, N-(4-((7-cyano-1-methyl-2-((1-methyl-2-oxo-5-(trifluoromethyl)-1,2-dihydropyridin-3-yl)amino)-1H-imidazo[4,5-b]pyridin-6-yl)oxy)pyridin-2-yl)acetamide phosphate], the solubility in series [1] (setting [5]) was below 1000 µg/mL. Further, the “XRPD Result (physical stability)” value in series [2] (RT, 5 d) was “Phosphate Form A”.

Take “N-(4-((7-cyano-1-methyl-2-((1-methyl-2-oxo-5-(trifluoromethyl)-1,2-dihydropyridin-3-yl)amino)-1H-imidazo[4,5-b]pyridin-6-yl)oxy)pyridin-2-yl)acetamide edisylate [Edisylate Form A]”: in series [1] (visual observation), the “Estimated Aqueous Solubility (mg/mL)” value was “B (B is <1 mg/mL)”. The “XRPD Result (physical stability)” value in series [2] (RT, 5 d) is given as “Edisylate Form C”.
